Experimental data reported in patent US8404738B2 (Hoffmann-La Roche Inc., priority 2011, dated 2013).

How the values were obtained:
[1] = tested on: p21 promoter-luciferase construct; test: p21 reporter gene induction (HeLa cells, p21 promoter-luciferase construct); conditions: for p21 RP3: relative gene level of p21 compared to MS275 at 3 μM; for p21 RP10: relative level of p21 compared to MS275 at 10 μM; for p21 RP30: relative level of p21 compared to MS275 at 30 μM;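 as to all read-outs here: transfected HeLa cells exposed to compound for 15 h, luciferase luminescence read from lysates, p21 promoter lacks p53 site, proxy for cellular HDAC1/2/3 inhibition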
Description: As a surrogate for in-cell HDAC1/2/3 inhibition, p21 induction was used as a counterscreen to evaluate the selectivity of the compounds in the present invention toward HDAC6 or HDAC8.
The novel compounds of the present invention were tested for their ability to induce p21 gene expression using a reporter gene assay involving HeLa cells transfected with a p21 promoter-luciferase construct. The p21 promoter contained the Sp1/Sp3 binding site for HDAC but not the upstream p53 binding site. Briefly, the day before transfection, HeLa cells were seeded at 11,000 cells/well in a 96-well culture plate and incubated at 37° C. in 5% CO2 overnight. A transfection media was prepared prior to transfection according to the following procedure: (1) 5 μl serum-free DMEM, 0.15 μl Fugene 6 reagent, 40 ng p21-luc, 10 ng GFP were mixed gently and incubated at rt for 30 minutes; (2), then 98 μl DMEM (with 10% FBS, 1% penicillin and streptomycin) was added to the DNA: Fugene 6 reagent complex and mixed gently. For transfection, the medium was removed and replaced with 100 μl/well transfection media which was prepared according to the procedure above. After incubating the cells for 24 hours at 37° C. in 5% CO2, fresh media and test compounds were added to the wells and the cells further incubated for 15 hours at 37° C. in 5% CO2. Cells were lysed by adding 80 μl/well of a cell culture lysis reagent (Promega). 50 μl of each lysate was taken for GFP detection using an excitation wavelength of 486 nm and detection at 527 nm. 100 μl luciferase assay reagent (Promega) was then added to every 20 μl cell lysate for luminometer detection.

recombinant human HDAC8 = target: T1, recombinant human HDAC8 (Homo sapiens, UniProt Q9BY41); test: HDAC8 inhibition: recombinant HDAC8 fluorometric assay; format: biochemical; conditions: recombinant human HDAC8, substrate Ac-Arg-His-Lys-Lys(ε-acetyl)-AMC; read-out: HDAC8 IC50
T1 construct: made in house; host or cells: insect cells
T1 sequence (Q9BY41 1-377): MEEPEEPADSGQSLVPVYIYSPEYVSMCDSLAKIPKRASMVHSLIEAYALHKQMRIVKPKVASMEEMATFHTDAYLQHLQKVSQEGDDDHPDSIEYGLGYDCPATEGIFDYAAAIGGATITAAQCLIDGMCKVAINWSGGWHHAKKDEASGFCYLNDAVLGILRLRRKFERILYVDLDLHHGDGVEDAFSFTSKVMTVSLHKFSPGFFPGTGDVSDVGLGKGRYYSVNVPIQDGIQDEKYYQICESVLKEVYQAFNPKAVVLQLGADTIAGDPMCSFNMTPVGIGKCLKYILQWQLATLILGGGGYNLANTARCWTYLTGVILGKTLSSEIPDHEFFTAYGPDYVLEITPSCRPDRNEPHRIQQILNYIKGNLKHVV
Description: HDAC8 Inhibition by Novel Compounds: Recombinant HDAC8 Fluorometric Assay.
A competitive inhibitory assay of HDAC8 was carried out by using recombinant HDAC8 and a commercial substrate Ac-Arg-His-Lys-Lys(ε-acetyl)-AMC.
Compounds were tested for their ability to inhibit histone deacetylase 8 using an in vitro deacetylation assay. The enzyme source for this assay was recombinant human HDAC8 protein expressed and purified from insect cells. […] The substrate consisted of a commercial product Ac-Arg-His-Lys-Lys(ε-acetyl)-AMC (substrate is available from Cayman Chemical). […] 1 μl of half-log diluted compounds were added into wells and incubated for 15 min at rt. After that, 8 μl of substrate solution was transferred to the wells and incubated for 30 min at rt. After deacetylation of the substrate by incubation with HDAC8 enzyme, subsequent exposure to a developing reagent produced a fluorophore that was directly proportional to the level of deacetylation. […] The fluorescence signal was measured by a FlexStation3 plate reader (excitation wave length 340-360 nm; emission wave length 440-465 nm). The HDAC8 IC50 was calculated after normalization and curve fitting using XLfit4.0 software. Inhibition %=[Mean(top)−signal(sample)]×100/[Mean(top)−Mean(bottom)].

Compound | p21 RP3 [1] | p21 RP10 [1] | p21 RP30 [1] | IC50 (recombinant human HDAC8) [µM]
O=C(NO)c1ccc(NC2CCN(C3(c4ccccc4)CCC3)C2=O)cc1 (stereo not drawn) [Example 54, N-Hydroxy-4-[2-oxo-1-(1-phenyl-cyclobutyl)-pyrrolidin-3-ylamino]-benzamide] | 0.28 | 0.46 | 0.79 | 0.31
O=C(NO)c1ccc(NC2CCN(S(=O)(=O)c3ccccc3)C2)cc1 (stereo not drawn) [Example 84, 4-(1-Benzenesulfonyl-pyrrolidin-3-ylamino)-N-hydroxy-benzamide] | 0.13 | 0.02 | 0.01 | 2.77
COc1ccc(CN2CCC(Nc3ccc(C(=O)NO)cc3)C2=O)cc1 (stereo not drawn) [Example 46, N-Hydroxy-4-[1-(4-methoxy-benzyl)-2-oxo-pyrrolidin-3-ylamino]-benzamide] | 0.07 | 0.26 | 0.70 | 0.39
O=C(NO)c1ccc(NC2CCN(c3ccc(Cl)cc3Cl)C2=O)cc1 (stereo not drawn) [Example 23, 4-[1-(2,4-Dichloro-phenyl)-2-oxo-pyrrolidin-3-ylamino]-N-hydroxy-benzamide] | 0.10 | 0.04 | 0.03 | 1.41
O=C(NO)c1ccc(NC2CCN(S(=O)(=O)c3ccc(-c4ccccc4)cc3)C2)cc1 (stereo not drawn) [Example 87, 4-[1-(Biphenyl-4-sulfonyl)-pyrrolidin-3-ylamino]-N-hydroxy-benzamide] | 0.20 | 0.00 | −0.03 | 2.01
O=C(NO)c1ccc(NC2CCN(CCc3ccccc3)C2=O)cc1 (stereo not drawn) [Example 43, N-Hydroxy-4-(2-oxo-1-phenethyl-pyrrolidin-3-ylamino)-benzamide] | −0.02 | 0.22 | 0.62 | 0.39
O=C(NO)c1ccc(NC2CCN(c3ccc(C(F)(F)F)cc3)C2=O)cc1 (stereo not drawn) [Example 12, N-Hydroxy-4-[2-oxo-1-(4-trifluoromethyl-phenyl)-pyrrolidin-3-ylamino]-benzamide] | 0.01 | 0.10 | 0.14 | 0.99
O=C(NO)c1ccc(NC2CCN(C(=O)c3ccc(F)cc3)C2)cc1 (stereo not drawn) [Example 89, 4-[1-(4-Fluoro-benzoyl)-pyrrolidin-3-ylamino]-N-hydroxy-benzamide] | 0.38 | 0.10 | 0.06 | 0.9
CCC1(Nc2ccc(C(=O)NO)cc2)CCN(C(C)(C)c2ccccc2)C1=O (stereo not drawn) [Example 65, 4-[3-Ethyl-1-(1-methyl-1-phenyl-ethyl)-2-oxo-pyrrolidin-3-ylamino]-N-hydroxy-benzamide] | 0.00 | 0.00 | 0.00 | 0.56
O=C(NO)c1ccc(NC2CCN(C(=O)c3ccccc3)C2)cc1 (stereo not drawn) [Example 88, 4-(1-Benzoyl-pyrrolidin-3-ylamino)-N-hydroxy-benzamide] | 0.35 | 0.06 | 0.03 | 1.35
COc1ccc(C(=O)N2CCC(Nc3ccc(C(=O)NO)cc3)C2)cc1 (stereo not drawn) [Example 90, N-Hydroxy-4-[1-(4-methoxy-benzoyl)-pyrrolidin-3-ylamino]-benzamide] | 0.38 | 0.09 | 0.05 | 0.92
O=C(NO)c1ccc(NC2CCN(S(=O)(=O)c3ccc(Cl)cc3)C2)cc1 (stereo not drawn) [Example 86, 4-[1-(4-Chloro-benzenesulfonyl)-pyrrolidin-3-ylamino]-N-hydroxy-benzamide] | 0.04 | 0.01 | 0.01 | 1.54
